Numbers after ± are expanded uncertainties.
Test: xn = mol fraction of the nth substance listed
Conditions: 100 kPa, Liquid; for viscosity: Falling or rolling sphere viscometry; for mass density: Vibrating tube method

CCCC[N+]1(C)CCOCC1.[Br-] [4-butyl-4-methylmorpholinium bromide] + O
Conditions	mass density [kg/m3]	viscosity [mPa·s]
298.15 K, x1 = 0.0017	1002.2 ± 1.2	–
298.15 K, x1 = 0.0033	1007.1 ± 1.2	–
298.15 K, x1 = 0.0066	1016.8 ± 1.2	–
298.15 K, x1 = 0.0088	1022.9 ± 1.1	–
298.15 K, x1 = 0.0167	1043.3 ± 1.1	–
298.15 K, x1 = 0.034	1081.4 ± 1.1	–
298.15 K, x1 = 0.0363	1086 ± 1.1	1.96 ± 0.2
298.15 K, x1 = 0.0601	1125.3 ± 1	3.204 ± 0.32
298.15 K, x1 = 0.0988	1170.8 ± 1	6.179 ± 0.62
298.15 K, x1 = 0.1242	1192 ± 1	9.576 ± 0.96
298.15 K, x1 = 0.154	1211.4 ± 1.1	15.07 ± 1.5
298.15 K, x1 = 0.2027	1234.7 ± 1.1	32.61 ± 3.3
298.15 K, x1 = 0.2383	1247.4 ± 1.2	57.4 ± 5.8
298.15 K, x1 = 0.2569	1252.8 ± 1.2	81.23 ± 8.2
298.15 K, x1 = 0.3007	1263.9 ± 1.3	159.1 ± 17
303.15 K, x1 = 0.0017	1000.7 ± 1.2	–
303.15 K, x1 = 0.0033	1005.6 ± 1.2	–
303.15 K, x1 = 0.0066	1015.2 ± 1.2	–
303.15 K, x1 = 0.0088	1021.3 ± 1.1	–
303.15 K, x1 = 0.0167	1041.5 ± 1.1	–
303.15 K, x1 = 0.034	1079.1 ± 1.1	–
303.15 K, x1 = 0.0363	1083.7 ± 1.1	1.715 ± 0.17
303.15 K, x1 = 0.0601	1122.6 ± 1	2.745 ± 0.28
303.15 K, x1 = 0.0988	1167.7 ± 1	5.16 ± 0.52
303.15 K, x1 = 0.1242	1188.7 ± 1	7.888 ± 0.79
303.15 K, x1 = 0.154	1208.1 ± 1.1	12.19 ± 1.2
303.15 K, x1 = 0.2027	1231.3 ± 1.1	25.31 ± 2.5
303.15 K, x1 = 0.2383	1244 ± 1.2	42.75 ± 4.3
303.15 K, x1 = 0.2569	1249.4 ± 1.2	60.27 ± 6.1
303.15 K, x1 = 0.3007	1260.5 ± 1.3	113.5 ± 12
308.15 K, x1 = 0.0017	999.1 ± 1.2	–
308.15 K, x1 = 0.0033	1003.9 ± 1.2	–
308.15 K, x1 = 0.0066	1013.4 ± 1.2	–
308.15 K, x1 = 0.0088	1019.5 ± 1.1	–
308.15 K, x1 = 0.0167	1039.5 ± 1.1	–
308.15 K, x1 = 0.034	1076.7 ± 1.1	–
308.15 K, x1 = 0.0363	1081.3 ± 1.1	1.5 ± 0.15
308.15 K, x1 = 0.0601	1119.7 ± 1	2.367 ± 0.24
308.15 K, x1 = 0.0988	1164.5 ± 1	4.353 ± 0.44
308.15 K, x1 = 0.1242	1185.4 ± 1	6.566 ± 0.66
308.15 K, x1 = 0.154	1204.7 ± 1	9.969 ± 1
308.15 K, x1 = 0.2027	1227.9 ± 1.1	20 ± 2
308.15 K, x1 = 0.2383	1240.7 ± 1.2	32.82 ± 3.3
308.15 K, x1 = 0.2569	1246.1 ± 1.2	45.77 ± 4.6
308.15 K, x1 = 0.3007	1257.2 ± 1.3	82.89 ± 8.4
313.15 K, x1 = 0.0017	997.2 ± 1.2	–
313.15 K, x1 = 0.0033	1002 ± 1.2	–
313.15 K, x1 = 0.0066	1011.4 ± 1.1	–
313.15 K, x1 = 0.0088	1017.4 ± 1.1	–
313.15 K, x1 = 0.0167	1037.3 ± 1.1	–
313.15 K, x1 = 0.034	1074.2 ± 1.1	–
313.15 K, x1 = 0.0363	1078.7 ± 1.1	1.323 ± 0.13
313.15 K, x1 = 0.0601	1116.8 ± 1	2.061 ± 0.21
313.15 K, x1 = 0.0988	1161.3 ± 1	3.716 ± 0.37
313.15 K, x1 = 0.1242	1182.1 ± 1	5.497 ± 0.55
313.15 K, x1 = 0.154	1201.3 ± 1	8.279 ± 0.83
313.15 K, x1 = 0.2027	1224.5 ± 1.1	16.07 ± 1.6
313.15 K, x1 = 0.2383	1237.3 ± 1.1	25.69 ± 2.6
313.15 K, x1 = 0.2569	1242.7 ± 1.2	35.46 ± 3.6
313.15 K, x1 = 0.3007	1253.9 ± 1.3	62.18 ± 6.2
318.15 K, x1 = 0.0017	995.2 ± 1.2	–
318.15 K, x1 = 0.0033	999.9 ± 1.2	–
318.15 K, x1 = 0.0066	1009.3 ± 1.1	–
318.15 K, x1 = 0.0088	1015.3 ± 1.1	–
318.15 K, x1 = 0.0167	1034.9 ± 1.1	–
318.15 K, x1 = 0.034	1071.5 ± 1.1	–
318.15 K, x1 = 0.0363	1076 ± 1.1	1.175 ± 0.12
318.15 K, x1 = 0.0601	1113.8 ± 1	1.81 ± 0.18
318.15 K, x1 = 0.0988	1158 ± 1	3.204 ± 0.32
318.15 K, x1 = 0.1242	1178.7 ± 1	4.65 ± 0.47
318.15 K, x1 = 0.154	1197.9 ± 1	6.951 ± 0.7
318.15 K, x1 = 0.2027	1221.1 ± 1.1	13.12 ± 1.3
318.15 K, x1 = 0.2383	1233.9 ± 1.1	20.44 ± 2.1
318.15 K, x1 = 0.2569	1239.3 ± 1.2	28.04 ± 2.8
318.15 K, x1 = 0.3007	1250.6 ± 1.3	47.76 ± 4.8
323.15 K, x1 = 0.0017	993 ± 1.2	–
323.15 K, x1 = 0.0033	997.7 ± 1.2	–
323.15 K, x1 = 0.0066	1007 ± 1.1	–
323.15 K, x1 = 0.0088	1012.9 ± 1.1	–
323.15 K, x1 = 0.0167	1032.5 ± 1.1	–
323.15 K, x1 = 0.034	1068.8 ± 1.1	–
323.15 K, x1 = 0.0363	1073.2 ± 1.1	1.039 ± 0.1
323.15 K, x1 = 0.0601	1110.8 ± 1	1.578 ± 0.16
323.15 K, x1 = 0.0988	1154.6 ± 1	2.745 ± 0.28
323.15 K, x1 = 0.1242	1175.3 ± 1	3.912 ± 0.39
323.15 K, x1 = 0.154	1194.4 ± 1	5.805 ± 0.58
323.15 K, x1 = 0.2027	1217.7 ± 1.1	10.72 ± 1.1
323.15 K, x1 = 0.2383	1230.5 ± 1.1	16.36 ± 1.6
323.15 K, x1 = 0.2569	1235.9 ± 1.2	22.35 ± 2.2
323.15 K, x1 = 0.3007	1247.2 ± 1.3	36.9 ± 3.7
328.15 K, x1 = 0.0017	990.6 ± 1.2	–
328.15 K, x1 = 0.0033	995.3 ± 1.2	–
328.15 K, x1 = 0.0066	1004.5 ± 1.1	–
328.15 K, x1 = 0.0088	1010.4 ± 1.1	–
328.15 K, x1 = 0.0167	1029.8 ± 1.1	–
328.15 K, x1 = 0.034	1065.9 ± 1.1	–
328.15 K, x1 = 0.0363	1070.1 ± 1.1	0.923 ± 0.093
328.15 K, x1 = 0.0601	1107.6 ± 1	1.387 ± 0.14
328.15 K, x1 = 0.0988	1151.2 ± 1	2.377 ± 0.24
328.15 K, x1 = 0.1242	1171.8 ± 1	3.323 ± 0.33
328.15 K, x1 = 0.154	1191 ± 1	4.888 ± 0.49
328.15 K, x1 = 0.2027	1214.3 ± 1.1	8.882 ± 0.89
328.15 K, x1 = 0.2383	1227.1 ± 1.1	13.28 ± 1.3
328.15 K, x1 = 0.2569	1232.5 ± 1.2	18.01 ± 1.8
328.15 K, x1 = 0.3007	1243.9 ± 1.3	29.03 ± 2.9
333.15 K, x1 = 0.0017	988.1 ± 1.2	–
333.15 K, x1 = 0.0033	992.7 ± 1.1	–
333.15 K, x1 = 0.0066	1001.9 ± 1.1	–
333.15 K, x1 = 0.0088	1007.8 ± 1.1	–
333.15 K, x1 = 0.0167	1027.1 ± 1.1	–
333.15 K, x1 = 0.034	1062.9 ± 1.1	–
333.15 K, x1 = 0.0363	1067.3 ± 1.1	0.83 ± 0.083
333.15 K, x1 = 0.0601	1104.4 ± 1	1.233 ± 0.12
333.15 K, x1 = 0.0988	1147.8 ± 1	2.082 ± 0.21
333.15 K, x1 = 0.1242	1168.4 ± 1	2.867 ± 0.29
333.15 K, x1 = 0.154	1187.5 ± 1	4.16 ± 0.42
333.15 K, x1 = 0.2027	1210.8 ± 1.1	7.465 ± 0.75
333.15 K, x1 = 0.2383	1223.7 ± 1.1	10.98 ± 1.1
333.15 K, x1 = 0.2569	1229.1 ± 1.2	14.86 ± 1.5
333.15 K, x1 = 0.3007	1240.5 ± 1.3	23.47 ± 2.4
338.15 K, x1 = 0.0017	985.4 ± 1.2	–
338.15 K, x1 = 0.0033	990 ± 1.1	–
338.15 K, x1 = 0.0066	999.2 ± 1.1	–
338.15 K, x1 = 0.0088	1005 ± 1.1	–
338.15 K, x1 = 0.0167	1024.2 ± 1.1	–
338.15 K, x1 = 0.034	1059.9 ± 1.1	–
338.15 K, x1 = 0.0363	1064.3 ± 1.1	0.751 ± 0.075
338.15 K, x1 = 0.0601	1101.1 ± 1	1.106 ± 0.11
338.15 K, x1 = 0.0988	1144.3 ± 1	1.836 ± 0.18
338.15 K, x1 = 0.1242	1164.8 ± 1	2.502 ± 0.25
338.15 K, x1 = 0.154	1184 ± 1	3.568 ± 0.36
338.15 K, x1 = 0.2027	1207.3 ± 1.1	6.337 ± 0.64
338.15 K, x1 = 0.2383	1220.3 ± 1.1	9.093 ± 0.91
338.15 K, x1 = 0.2569	1225.8 ± 1.2	12.32 ± 1.2
338.15 K, x1 = 0.3007	1237.2 ± 1.3	19.19 ± 1.9
343.15 K, x1 = 0.0017	982.6 ± 1.1	–
343.15 K, x1 = 0.0033	987.2 ± 1.1	–
343.15 K, x1 = 0.0066	996.3 ± 1.1	–
343.15 K, x1 = 0.0088	1002.1 ± 1.1	–
343.15 K, x1 = 0.0167	1021.2 ± 1.1	–
343.15 K, x1 = 0.034	1056.7 ± 1.1	–
343.15 K, x1 = 0.0363	1061.1 ± 1.1	0.685 ± 0.069
343.15 K, x1 = 0.0601	1097.5 ± 1	0.992 ± 0.1
343.15 K, x1 = 0.0988	1140.8 ± 1	1.633 ± 0.16
343.15 K, x1 = 0.1242	1161.3 ± 1	2.288 ± 0.23
343.15 K, x1 = 0.154	1180.4 ± 1	3.149 ± 0.32
343.15 K, x1 = 0.2027	1203.8 ± 1.1	5.442 ± 0.55
343.15 K, x1 = 0.2383	1216.8 ± 1.1	7.452 ± 0.75
343.15 K, x1 = 0.2569	1222.4 ± 1.2	10.42 ± 1.1
343.15 K, x1 = 0.3007	1233.8 ± 1.3	15.92 ± 1.6

From the NIST ThermoML archive (doi:10.1016/j.jct.2016.03.030)
